How the values were obtained:
NCI-H460 cells = assay: Cell viability assay, 96 hours ATPlite; assay type: cell-based; conditions: Homo sapiens, NCI-H460 parental cells
Procedure: Cell line cultures were maintained using appropriate cell culture media as recommended by ATCC and as previously reported (Soucy et al., 2009, Milhollen et al., 2010). […] Cell viability assays completed using 96 hours ATPlite assay (PerkinElmer) as previously reported (Soucy et al., 2009).

[1] = test system: HCT-116 WT, HCT-116.1 A171T and HCT-116.4 C324Y cells; assay: Drug efflux inhibitor co-incubation, ATPlite viability assay; assay type: cell-based; conditions: efflux inhibitors at highest non toxic concentration, 96 hours
Procedure: Treatment of cells with efflux inhibitors. FIG. 8A. […] Co-incubation studies were performed with various inhibitors of drug efflux at their highest non toxic concentration.
Diypridamole (Sigma), MK571 (Tocris), GF918, K0143 (Tocris) and LY5979 were obtained from commercial sources indicated.

[2] = test system: NEDD8-cullin levels in HCT-116 WT and A171T xenografts; assay: Pharmacodynamic marker analysis in tumor xenografts; assay type: in vivo, rat; conditions: single dose of 150 mg/kg
Source text: (§1) The relative levels of NEDD8-cullin and pIxBa were estimated by quantitative immunoblot analysis (Li-cor Odyssey system) using Alexa680-labelled anti-IgG (Molecular Probes) as the secondary antibody. For the analysis of CDT1 and cleaved caspase-3 levels in tumor sections, formalin-fixed, paraffin-embedded tumour sections were stained with the relevant antibodies, amplified with HRP-labelled secondary antibodies and detected with the ChromoMap DAB Kit (Ventana Medical Systems). Slides were counterstained with haematoxylin. Images were captured using an Eclipse E800 microscope (Nikon Instruments) and Retiga EXi colour digital camera (QImaging) and processed using Metamorph software (Molecular Devices). CDT1 and cleaved caspase-3 are expressed as a function of the DAB signal area.
The digests were analyzed on a LC/MS/MS system as previously described (Brownell et al., 2010).

[3] = test system: NEDD8-cullin levels in A171T THP-1 xenografts; assay: as above; assay type: in vivo, mouse; conditions: single dose 90 mg/kg
Source text: as §1

SMILES: NS(=O)(=O)OC[C@@H]1C[C@@H](n2ccc3c(N[C@H]4CCc5ccccc54)ncnc32)C[C@@H]1O [MLN4924, ((1S,2S,4R)-4-{4-[(1S)-2,3-dihydro-1H-inden-1-ylamino]-7H-pyrrolo[2,3-d]pyrimidin-7-yl}-2-hydroxycyclopentyl)methyl sulphamate]
- EC50 (NCI-H460 cells): 1070 nM
- MLN4924 activity on co-incubation with drug efflux inhibitors [1]: unaffected
- time of maximal inhibition of NEDD8-cullin levels post-dose ([2]; A171T HCT-116 resistant model): 8 h
- time of maximal inhibition of NEDD8-cullin levels post dose ([2]; WT HCT-116 xenografts): 1 h
- inhibition of NEDD8-cullin levels [3]: minimal inhibition

Reference: US20170107579A1, “E1 ENZYME MUTANTS AND USES THEREOF” (Millennium Pharmaceuticals, Inc., priority 2011, published 2017)
